According to PMC11137182, “Selective and brain-penetrant ACSS2 inhibitors target breast cancer brain metastatic cells” (Frontiers in Pharmacology, 2024):

What was measured:
[1] = target: T1, ACSS2 (Homo sapiens, UniProt Q9NR19); assay: Fluorescence polarization-based ACSS2 biochemical assay (ATP to AMP conversion); conditions: 100 nM ACSS2, triplicate, ± SD; read-out: IC50, inhibition of ATP to AMP conversion of ACSS2
T1 construct: His-tag (N); His-tag (C); made in house; host or cells: E. coli BL21 (DE3) RIL
Protocol: ACSS2 enzyme activity was measured using the TranScreener AMP^2/GMP^2 Assay Kit—FP Readout assay (BellBrook Labs). The assay was performed in white, opaque, 96-well plates. […] ACSS2 was used in assay buffer (30 mM HEPES, pH 7.4, 140 mM NaCl, 2 mM MgCl2, 5 mM sodium acetate, 2 mM DTT, 0.05% CHAPS). Substrate mix was added, followed by a 60-min incubation. Final substrate concentrations were 5 mM acetate, 50 μM ATP, and 5 μM CoA. After incubation, conjugated AMP antibody and AMP tracer were added according to the methods described by BellBrook Labs. After 30 min, the FP signal was measured using a Tecan Spark multimode microplate reader. In the analysis, data were normalized to represent the percentage inhibition of ATPase activity.

[2] = system: FASN; assay: Immunoblot of FASN protein levels; assay type: cell-based; conditions: MDA-MB-231BR cells, 24 h
Protocol: Immunoblotting protocols have been previously described. Briefly, cell lysates from one to five x 10^6 cells were prepared in radioimmune precipitation assay buffer (150 mM NaCl, 1% NP40, 0.5% DOC, 50 mM Tris HCL at pH 8, 0.1% SDS, 10% glycerol, 5 mM EDTA, 20 mM NaF, and 1 mM Na3VO4) supplemented with 1 μg/mL each of pepstatin, leupeptin, aprotinin, and 200 μg/mL PMSF. Lysates were cleared by centrifugation at 16,000 x g for 15 min at 4°C and analyzed by SDS-PAGE and autoradiography with chemiluminescence. Proteins were analyzed by immunoblotting using primary antibodies indicated above.

[3] = system: 4T1BR cells; assay: Intracranial 4T1BR tumor model in vivo; set-up: species or system BalbC mice
Protocol: (§1) Intracranial injections were performed as previously described ([Ciraku et al., 2021]). Briefly, Nu/Nu or BalbC female 4–6 week old mice from Charles River Laboratories (Wilmington, MA, United States) were immobilized using the Just for Mice ™ Stereotaxic Frame (Harvard Apparatus, Holliston, MA, United States) and injected intracranially with 5 μL of a 20,000 cells/μL solution of MDA-MB-231BR or 4T1BR cells stably expressing luciferase. Mice were injected intraperitoneally with 30 mg/kg of Dluciferin solution (Caliper Life Sciences, Hopkinton, MA) and results analyzed using Living Image software (Caliper Life Sciences, Waltham, MA, United States). For in vivo analog trials, mice were weighed daily and injected intraperitoneally with 50 mg/kg of AD-8007. Mice were euthanized 3 weeks after injection following survivial or at the end of drug treatment at indiciated day. The animal study was reviewed and approved by the Institutional Animal Care and Use Committee.
(§2) Brains were dissected, fixed in 4% formalin and prepared for processing/sectioning/embedding/blocking to generate paraffin embedded slides. The slides containing brain metastatic tumors were deparaffinized by Xylene and subsequent rehydration was done by decreasing concentrations of ethanol-water mixture. Antigen retrieval was done by citrate buffer immersion and steaming the slides for 45 min. Tissue was treated with 200–400 ul 1% BSA+5% serum PBS solution for 1h. Primary incubation was done at 4 °C overnight using primary antibody anti-FasN (Cell Signaling Technologies, C20G5). Secondary antibody incubation was done for an hour at RT with HRP conjugated Anti-Rabbit Secondary antibody (Cell Signaling Technologies). at 1:100 dilution. For IHC the stain was developed using the DAB kit by Vectastain (Vector Labs, Burlingame, CA, United States). Finally, slides were mounted and imaged under a light microscope. H&E and Ki-67 staining were performed and assessed at TJU, Department of Pathology, Philadelphia, PA by board-certified pathologist.

[4] = system: MDA-MB-231BR cells; assay: Intracranial MDA-MB-231BR tumor model in vivo; set-up: species or system Nu/Nu mice
Protocol: as §1, §2

[5] = system: MDA-MB-231BR cells; assay: Acetyl-CoA quantification by LC-HRMS; assay type: cell-based; conditions: 100 μM, 48 h
Protocol: (§3) Cells were grown to ∼80% confluency in a 10-cm dish in normal growth medium, 48 h prior to collecting cells, aspirate media and replace with fresh growth media and drug was added at 100 μM. To collect cells, media was aspirated and 1 mL of 10% trichloroacetic acid (w/v) in water was added directly to the cells. Cells were scraped and transferred into a 1.7 mL Eppendorf tube and stored at −80 until labeling. […] Lysates were centrifuged 17,000 g for 10 min at 4°C and supernatant was transferred to a deep-well 96-well plate for loading in a Tomtec Quadra4 liquid handling workstation. On the liquid handling workstation, lysates were applied to an Oasis HLB 96-well elution plate (30 mg of sorbent per well) pre-conditioned and equilibrated with 1 mL of methanol and 1 mL of water, respectively. After de-salting with 1 mL of water, analytes were eluted into a deep-well 96-well plate using 1 mL of 25 mM ammonium acetate in methanol. Eluent was evaporated dried under nitrogen gas. The dried LC-HRMS samples were resuspended in 50 µL of 5% (w/v) sulfosalicylic acid in water. […] A modified gradient using solvent A (5 mM ammonium acetate in water), solvent B (5 mM ammonium acetate in 95:5 (v:v) acetonitrile: water) and solvent C (0.1% (v/v) formic acid in 80:20 (v:v) acetonitrile: water). Data was acquired using XCalibur 4.0 (Thermo Scientific) and analyzed using Tracefinder 5.1 (Thermo Scientific).

[6] = system: 4T1BR cells; assay: Acetyl-CoA quantification by LC-HRMS; assay type: cell-based; conditions: 100 μM, 48 hours
Protocol: as §3

T1 sequence (Q9NR19 whole entry): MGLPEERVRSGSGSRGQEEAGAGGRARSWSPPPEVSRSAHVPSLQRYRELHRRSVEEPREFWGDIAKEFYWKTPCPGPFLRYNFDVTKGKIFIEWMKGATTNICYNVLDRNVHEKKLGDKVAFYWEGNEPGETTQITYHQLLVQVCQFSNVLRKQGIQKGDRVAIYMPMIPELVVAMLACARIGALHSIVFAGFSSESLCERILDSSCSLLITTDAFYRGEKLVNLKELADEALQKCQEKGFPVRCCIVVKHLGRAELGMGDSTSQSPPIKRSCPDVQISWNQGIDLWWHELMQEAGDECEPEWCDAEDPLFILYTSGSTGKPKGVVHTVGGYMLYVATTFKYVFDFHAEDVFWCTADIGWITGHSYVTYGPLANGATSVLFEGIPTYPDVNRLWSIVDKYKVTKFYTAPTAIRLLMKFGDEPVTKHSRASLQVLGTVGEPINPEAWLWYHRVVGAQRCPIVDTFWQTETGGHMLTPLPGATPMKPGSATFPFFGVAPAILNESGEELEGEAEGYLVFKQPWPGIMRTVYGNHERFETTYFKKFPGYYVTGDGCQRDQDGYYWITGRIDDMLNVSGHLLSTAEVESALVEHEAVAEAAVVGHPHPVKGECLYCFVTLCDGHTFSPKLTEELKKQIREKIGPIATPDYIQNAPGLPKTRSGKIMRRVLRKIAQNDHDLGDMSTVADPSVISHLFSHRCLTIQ

With `N[C@H](C(=O)N1CCCC(c2ccccc2)(c2ccccc2)C1)C1CC1` [AD-8007] the IC50 [1] was 890 ± 290 nM, the “protein levels of FASN” value [2] was “reduced protein levels of FASN” and the Ki-67 staining ([3]; 4T1BR intracranial, 10 days post treatment) was “reduced Ki-67 staining”. For the same compound, the survival ([3]; 4T1BR intracranial, Kaplan Meyer) was “significantly extended survival”, the “tumor burden (bioluminescence)” value ([3]; 4T1BR intracranial, immunecompetent mice, 10 days) was “reduced tumor burden” and the body weight ([3]; immunecompetent mice, 10 days) was “did not cause significant weight lost”. For the same compound, the “tumor burden (bioluminescence)” value ([4]; MDA-MB-231BR intracranial, 50 mg/kg daily, 14 days) was “significantly reduced tumor burden”, the “tumor burden and proliferation via H&E and Ki67 staining” value ([4]; MDA-MB-231BR intracranial, 14 days post treatment) was “reduction in tumor burden and proliferation” and the survival ([4]; MDA-MB-231BR intracranial, drug withdrawn after treatment, Kaplan Meyer) was “significantly extended surivial”. For the same compound, the “FASN staining in tumors” value ([4]; MDA-MB-231BR tumors, 14 days treatment, IHC) was “reduced expression of FASN staining”, the body weight ([4]; immunodeficient mice, 50 mg/kg daily, 14 days) was “did not cause significant weight lost” and the acetyl-CoA levels [5] was “significantly reduced acetyl-CoA levels”. The acetyl-CoA levels [6] was “significantly reduced acetyl-CoA levels”.
